Assay: xn = mol fraction of the nth substance listed
Details: 101 kPa

Work on CO + CCCC[n+]1ccn(C)c1.[Cl-] yielded an electrical conductivity (293.15 K, x2 = 0) of 0.003 S/m, an electrical conductivity (303.15 K, x2 = 0) of 0.004 S/m and an electrical conductivity (313.15 K, x2 = 0) of 0.007 S/m. For the same compound, the electrical conductivity (323.15 K, x2 = 0) was 0.011 S/m.
In the case of CCCC[n+]1ccn(C)c1.[Cl-] + CO, the electrical conductivity (293.15 K, x1 = 0.0011) is reported as 0.18 S/m, the electrical conductivity (293.15 K, x1 = 0.0022) is reported as 0.34 S/m and the electrical conductivity (293.15 K, x1 = 0.0035) is reported as 0.48 S/m. The electrical conductivity (293.15 K, x1 = 0.0045) was 0.6 S/m, the electrical conductivity (293.15 K, x1 = 0.0056) was 0.72 S/m and the electrical conductivity (293.15 K, x1 = 0.0068) was 0.83 S/m. The electrical conductivity (293.15 K, x1 = 0.0092) was 1.02 S/m, the electrical conductivity (293.15 K, x1 = 0.0104) was 1.13 S/m and the electrical conductivity (303.15 K, x1 = 0.0011) was 0.2 S/m. The electrical conductivity (303.15 K, x1 = 0.0022) was 0.38 S/m, the electrical conductivity (303.15 K, x1 = 0.0035) was 0.53 S/m and the electrical conductivity (303.15 K, x1 = 0.0056) was 0.79 S/m. For the same compound, the electrical conductivity (303.15 K, x1 = 0.0068) was 0.9 S/m, the electrical conductivity (303.15 K, x1 = 0.008) was 1.01 S/m and the electrical conductivity (303.15 K, x1 = 0.0092) was 1.11 S/m. The electrical conductivity (303.15 K, x1 = 0.0104) was 1.22 S/m, the electrical conductivity (313.15 K, x1 = 0.0011) was 0.23 S/m and the electrical conductivity (313.15 K, x1 = 0.0045) was 0.75 S/m. The electrical conductivity (313.15 K, x1 = 0.0056) was 0.87 S/m, the electrical conductivity (313.15 K, x1 = 0.0068) was 1.01 S/m and the electrical conductivity (313.15 K, x1 = 0.008) was 1.12 S/m. It also gave an electrical conductivity (313.15 K, x1 = 0.0092) of 1.23 S/m, an electrical conductivity (313.15 K, x1 = 0.0104) of 1.33 S/m and an electrical conductivity (323.15 K, x1 = 0.0011) of 0.26 S/m. It also gave an electrical conductivity (323.15 K, x1 = 0.0022) of 0.48 S/m, an electrical conductivity (323.15 K, x1 = 0.0035) of 0.67 S/m and an electrical conductivity (323.15 K, x1 = 0.0056) of 0.96 S/m. For the same compound, the electrical conductivity (323.15 K, x1 = 0.0068) was 1.1 S/m, the electrical conductivity (323.15 K, x1 = 0.008) was 1.24 S/m and the electrical conductivity (323.15 K, x1 = 0.0092) was 1.35 S/m. For the same compound, the electrical conductivity (323.15 K, x1 = 0.0104) was 1.45 S/m.

Reference: a compilation of properties of binary mixtures (doi:10.1016/j.molliq.2019.111804)
